Results published in PubChem BioAssay (NCI).
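Values below derive from 48-hour exposures of cells grown in 96-well plates, with endpoints linearly interpolated between the two concentrations bracketing the appropriate inhibition level. Definition used: TGI = concentration required for complete inhibition of growth.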

Columns and labels:
Test in all cases: growth of human tumour cells (NCI), 48 h
[1] = tested on: IGROV1 ovarian
[2] = tested on: HT29 colon
[3] = tested on: HCC-2998 colon
[4] = tested on: SW-620 colon
[5] = tested on: SF-539 CNS
[6] = tested on: M14 melanoma
[7] = tested on: OVCAR-8 ovarian
[8] = tested on: OVCAR-5 ovarian
[9] = tested on: CAKI-1 renal
[10] = tested on: HS 578T breast
[11] = tested on: KM12 colon
[12] = tested on: NCI-H226 lung
[13] = tested on: NCI-H522 lung
[14] = tested on: UO-31 renal
[15] = tested on: EKVX NSCLC
[16] = tested on: SK-MEL-5 melanoma
[17] = tested on: A498 renal
[18] = tested on: SN12C renal
[19] = tested on: COLO 205 colon
[20] = tested on: BT-549 breast

Compound	TGI [1]	TGI [2]	TGI [3]	TGI [4]	TGI [5]	TGI [6]	TGI [7]	TGI [8]	TGI [9]	TGI [10]	TGI [11]	TGI [12]	TGI [13]	TGI [14]	TGI [15]	TGI [16]	TGI [17]	TGI [18]	TGI [19]	TGI [20]
COc1ccc(/C=C2\Sc3nnc(-c4ccccc4)n3N=C2c2cc(F)c(Cl)cc2Cl)cc1OC	> 100 µM	> 100 µM	47.2 µM	92 µM	> 100 µM	> 100 µM	> 100 µM	> 100 µM	> 100 µM	> 100 µM	> 100 µM	> 100 µM	38.3 µM	> 100 µM	> 100 µM	> 100 µM	> 100 µM			
COc1ccc(/C=N/N=C(\N)NO)cc1F	> 100 µM	38.3 µM	> 100 µM	> 100 µM	60.1 µM	33.3 µM	> 100 µM	97.2 µM	46.5 µM		> 100 µM	41.4 µM	87.1 µM	39.6 µM	> 100 µM	18.5 µM		> 100 µM	> 100 µM	
COC(=O)CSc1nc2[nH]c(SC)c(C(N)=O)c2c(=O)n1-c1ccccc1	> 10 µM	> 10 µM	> 10 µM	> 10 µM		> 10 µM	> 10 µM		> 10 µM		> 10 µM				> 10 µM	> 10 µM		> 10 µM	> 10 µM	
O=NN1CCN=C1c1ccc([N+](=O)[O-])cc1	> 100 µM	> 100 µM	> 100 µM	> 100 µM	> 100 µM	> 100 µM	> 100 µM	> 100 µM	> 100 µM		> 100 µM	> 100 µM	> 100 µM	> 100 µM		> 100 µM		> 100 µM	> 100 µM	
C=C1CCC2[C@](C)(CCC[C@]2(C)C(=O)O)[C@@H]1CCc1ccoc1 (some centres not stated)	84.8 µM	55.7 µM	> 100 µM	> 100 µM	99.4 µM	> 100 µM		> 100 µM	> 100 µM	80.3 µM	74.9 µM	65.8 µM	> 100 µM	> 100 µM	> 100 µM	84.8 µM	> 100 µM	> 100 µM	33 µM	
COc1ccc(C(OCC2OC3(COC(c4ccccc4)(c4ccc(OC)cc4)c4ccc(OC)cc4)C(Oc4nc(=O)ccn43)C2O)(c2ccccc2)c2ccc(OC)cc2)cc1 (configuration not stated)	> 100 µM	> 100 µM		> 100 µM	> 100 µM	> 100 µM	> 100 µM	> 100 µM	> 100 µM	51.8 µM	> 100 µM	> 100 µM	> 100 µM	> 100 µM	> 100 µM	> 100 µM		> 100 µM	> 100 µM	> 100 µM
O=C(Nc1ccc([N+](=O)[O-])cc1[N+](=O)[O-])C(=O)C(C(=O)c1ccc(Cl)c(Cl)c1)C1OC(=O)c2ccccc21 (configuration not stated)	84.7 µM	71.1 µM		54.6 µM			45.5 µM	65.9 µM	> 100 µM		37 µM	36 µM	44.7 µM	80.9 µM	> 100 µM		68.8 µM	85 µM	48.4 µM	
